The results in this text go back to patent US8034827B2, “Phenanthridine derivatives as bradykinin antagonists” (Richter Gegeon Nyrt., priority 2005, dated 2011).

Counter-ions that a name gives are not always drawn.

Broadly, the Ki is a dissociation constant, usually derived from enzyme kinetics or from competition with a known ligand.

For experiment [1], the target named is T1, recombinant human B1 receptors (Homo sapiens, UniProt P46663).
T1 construct: host or cells: CHO (CHO-B1)
T1 sequence (P46663 1-353): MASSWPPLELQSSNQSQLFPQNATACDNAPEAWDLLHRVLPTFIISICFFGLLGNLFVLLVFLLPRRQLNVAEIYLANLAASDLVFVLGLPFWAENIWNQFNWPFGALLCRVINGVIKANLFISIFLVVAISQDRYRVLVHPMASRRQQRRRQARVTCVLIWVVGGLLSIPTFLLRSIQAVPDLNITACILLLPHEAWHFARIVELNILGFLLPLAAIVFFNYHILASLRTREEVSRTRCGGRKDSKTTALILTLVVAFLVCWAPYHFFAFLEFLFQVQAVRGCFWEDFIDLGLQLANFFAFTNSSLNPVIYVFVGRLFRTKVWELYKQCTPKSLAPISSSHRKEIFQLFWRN
Briefly: Antagonist potency by measurement of cytosolic calcium ion concentration in CHO-B1 cells (agonist LysDABK). It counts as cell-based. The settings on record: inhibition of LysDABK (EC80)-evoked [Ca2+]i elevation, fluo-4, read-out: B1 func. Here is the method:
Assessment of Antagonist Potency at B1 and B2 Receptors In Vitro by Measurement of Cytosolic Calcium Ion Concentration with a Plate Reader Fluorimeter in Cells Expressing Recombinant Human B1 or B2 Receptors
Chinese hamster ovary (CHO) cells stably expressing recombinant human B1 (CHO-B1, Euroscreen) or B2 (CHO-B2, Perkin-Elmer) receptors were cultured in Dulbecco's Modified Eagle's Medium (DMEM) containing 10% Fetal Calf Serum (FCS), 100 U/ml penicillin, 0.1 mg/ml streptomycin, 0.25 μg/ml amphotericin B, 1% Minimum Essential Medium Eagle (MEM), non essential amino acid solution, 600 μg/ml G418, 1% pyruvate (for the B2 cell line). Cells were kept at 37° C. in a humidified incubator in an atmosphere of 5% CO2/95% air and were passaged 1:4 three times a week. Cells were plated at 1.5-2.5×10^4 cell/well on standard 96-well microplates, measurements of cytosolic calcium ion concentration ([Ca^2+]i) were carried out 1-2 days after cell plating.
Measurements of [Ca^2+]i were carried out on CHO-B1 and CHO-B2 cells stably expressing human B1 and B2 receptors, respectively. Cells were grown in standard 96-well microplates and before the measurement were loaded with a fluorescent Ca^2+-sensitive dye, fluo-4/AM (2 μM): after removing the culture medium the dye was added to the cells (dissolved in assay buffer: 145 mM NaCl, 5 mM KCl, 2 mM MgCl2, 2 mM CaCl2, 10 mM HEPES, 20 mM D-glucose, 2 mM probenecid, 100 μl/well) and cells were incubated at 37° C. in a humidified incubator in an atmosphere of 5% CO2/95% air for 40-120 min. To stop dye loading cells were washed twice with assay buffer. After washing, various concentrations of the test compounds (diluted in extracellular medium from a DMSO stock solution, final DMSO concentration was <0.1%) or buffer were added to each well depending on the experimental setup. After incubation at 37° C. for 20-25 min. baseline and agonist-evoked changes of [Ca^2+]i were measured column by column with a plate reader fluorimeter (Fluoroskan Ascent, Labsystems). Excitation and detection of emission was carried out from the bottom of the plate. Filters used for Fluo-4: excitation filter −485 nm, emission filter −538 nm. The whole measurement process was performed at 37° C. and was controlled by custom software. Inhibitory potency of the test compounds was assessed by measuring the reduction in the agonist-evoked [Ca^2+]i-elevation in the presence of different concentrations of the compounds. The agonists were LysDABK for CHO-B1, and bradykinin for CHO-B2 cells. Agonists were applied at an EC80 concentration, the EC80-values were derived from daily determined dose-response curves. Fluorescence data were expressed as ΔF/F (fluorescence change normalized to baseline). All treatments on a single plate were measured in multiple wells. Data from all wells with the same treatment were averaged and the average values were used for analysis. Inhibitory potency of a compound at a single concentration point was expressed as percent inhibition of the control agonist response. Sigmoidal concentration-inhibition curves were fitted to the data (derived from at least three independent experiments) and IC50-values were determined as the concentration that produces half of the maximal inhibition caused by the compound.

Experiment [2] deals with T2, human recombinant bradykinin1 receptors (Homo sapiens, UniProt P46663).
T2 construct: host or cells: CHO cells
T2 sequence (P46663 1-353): T1 sequence (P46663 1-353)
Briefly: Human recombinant bradykinin B1 receptor binding. The settings on record: CHO cell membranes, [3H]-[Des-Arg10] Kallidin radioligand. As to the method:
Receptor Binding Assays 1. Human Recombinant Bradykinin B1 Receptor Binding
Binding assays were carried out on human recombinant bradykinin1 receptors (expressed in CHO cells) according to the Euroscreen Technical Data Sheet (Cat. No.: ES-091). 20 μg protein/tube was incubated with [3,4-prolyl-3,4-^3H(N)]-[Des-Arg^10] Kallidin as radioligand. Non specific binding was determined in the presence of 10 μM Lys-des-Arg^9-Bradykinin. The final incubation volume was 250 μl. Samples were incubated for 15 min. at 25° C. then were rapidly vacuum filtered through GF/B filters presoaked for at least 1 h in 0.5% PEI. Radioactivity was determined by liquid scintillation spectroscopy.

Regarding `O=C(CC1c2ccccc2-c2ccccc2N1S(=O)(=O)c1ccc(Cl)c(Cl)c1)NCCCN1CCN(c2ccncc2)CC1` (centres unmarked) [Example 9, 2-[5-(3,4-Dichloro-benzenesulfonyl)-5,6-dihydro-phenanthridin-6-yl]-N-[3-(4-pyridin-4-yl-piperazin-1-yl)-propyl]-acetamide], the IC50 in experiment [1] was < 100 nM. In addition, the Ki in experiment [2] is < 100 nM.
`O=C(CC1c2ccccc2-c2ccccc2N1S(=O)(=O)c1ccc(Cl)c(Cl)c1)NCCN1CCN(c2ccncc2)CC1` (centres unmarked) [Example 3]: the IC50 in experiment [1] was < 100 nM. Moreover, the Ki in experiment [2] was < 100 nM.
Take `O=C(CC1c2ccccc2-c2ccccc2N1S(=O)(=O)c1ccc(Cl)c(Cl)c1)N1CCC(Cc2ccc(C3=NCCN3)cc2)CC1` (centres unmarked) [Example 5, 2-[5-(3,4-Dichloro-benzenesulfonyl)-5,6-dihydro-phenanthridin-6-yl]-1-{4-[4-(4,5-dihydro-1H-imidazol-2-yl)-benzyl]-piperidin-1-yl}-ethanone]: the IC50 in experiment [1] is < 100 nM. Also, the Ki in experiment [2] is < 100 nM.
Consider `N=C(N)c1ccc(CCNC(=O)CC2c3ccccc3-c3ccccc3N2S(=O)(=O)c2ccc(Cl)c(Cl)c2)cc1` (centres unmarked) [Example 20, N-[2-(4-Carbamimidoyl-phenyl)-ethyl]-2-[5-(3,4-dichloro-benzenesulfonyl)-5,6-dihydro-phenanthridin-6-yl]-acetamide], for which the IC50 in experiment [1] is < 100 nM. Further, the Ki in experiment [2] was < 100 nM.
`COc1cccc2c1-c1ccccc1N(S(=O)(=O)c1ccc(Cl)c(Cl)c1)C2CC(=O)N[C@H]1CC[C@H](CCN2CCCC2)CC1` (stereo partly drawn) [Example 21, trans-2-[5-(3,4-Dichloro-benzenesulfonyl)-10-methoxy-5,6-dihydro-phenanthridine-6-yl]-N-[4-(2-pyrrolidin-1-ylethyl)-cyclohexyl]-acetamide]: the IC50 in experiment [1] is < 100 nM. The inhibition constant (Ki) in experiment [2] is < 100 nM.
As to `O=C(CC1c2ccccc2-c2ccccc2N1S(=O)(=O)c1ccc(Cl)c(Cl)c1)Nc1ccc(N2CCC(N3CCCCC3)CC2)cc1` (centres unmarked) [Example 8, N-(4-[1,4′]Bipiperidinyl-1-yl-phenyl)-2-[5-(3,4-dichloro-benzenesulfonyl)-5,6-dihydro-phenanthridin-6-yl]-acetamide], the IC50 in experiment [1] was 100 to 500 nM. Besides, the Ki in experiment [2] is < 100 nM.
On to `O=C(CC1c2cc(F)ccc2-c2ccccc2N1S(=O)(=O)c1ccc(Cl)c(Cl)c1)NCCc1ccc(C2=NCCN2)cc1` (centres unmarked) [Example 1, 2-[5-(3,4-Dichloro-benzenesulfonyl)-8-fluoro-5,6-dihydro-phenanthridin-6-yl]-N-{2-[4-(4,5-dihydro-1H-imidazol-2-yl)-phenyl]-ethyl}-acetamide hydrochloride], for which, in experiment [1], the IC50 is < 100 nM. Besides, the Ki in experiment [2] is < 100 nM.
Regarding `COc1ccc(S(=O)(=O)N2c3ccccc3-c3ccccc3C2CC(=O)NCCc2ccc(C3=NCCN3)cc2)cc1` (centres unmarked) [Example 16, N-{2-[4-(4,5-Dihydro-1H-imidazol-2-yl)-phenyl]-ethyl}-2-[5-(4-methoxy-benzenesulfonyl)-5,6-dihydro-phenanthridin-6-yl]-acetamide hydrochloride], the IC50 in experiment [1] was < 100 nM. Further, the Ki in experiment [2] was < 100 nM.
On to `O=C(CC1c2ccccc2-c2ccccc2N1S(=O)(=O)c1ccc(Cl)c(Cl)c1)NCCc1ccc(C2=NCCN2)cc1` (centres unmarked) [Example 2, 2-[5-(3,4-Dichloro-benzenesulfonyl)-5,6-dihydro-phenanthridin-6-yl]-N-{2-[4-(4,5-dihydro-1H-imidazol-2-yl)-phenyl]-ethyl}-acetamide hydrochloride], for which the IC50 in experiment [1] was < 100 nM. For the same compound, the Ki in experiment [2] was < 100 nM.
Consider `Cc1cc(C)c(S(=O)(=O)N2c3ccccc3-c3ccccc3C2CC(=O)NCCc2ccc(C3=NCCN3)cc2)c(C)c1` (centres unmarked) [Example 15, N-{2-[4-(4,5-Dihydro-1H-imidazol-2-yl)-phenyl]-ethyl}-2-[5-(2,4,6-trimethyl-benzenesulfonyl)-5,6-dihydro-phenanthridin-6-yl]-acetamide hydrochloride], for which, in experiment [1], the IC50 is < 100 nM. The Ki in experiment [2] was < 100 nM.
With `O=C(CC1c2cc(F)cc(F)c2-c2ccccc2N1S(=O)(=O)c1ccc(Cl)c(Cl)c1)NCCc1ccc(C2=NCCN2)cc1` (centres unmarked) [Example 18, 2-[5-(3,4-Dichloro-benzenesulfonyl)-8,10-difluoro-5,6-dihydro-phenanthridin-6-yl]-N-{2-[4-(4,5-dihydro-1H-imidazol-2-yl)-phenyl]-ethyl}-acetamide hydrochloride], in experiment [1], the IC50 is < 100 nM. For the same compound, the inhibition constant Ki in experiment [2] was < 100 nM.
Consider `O=C(CC1c2ccccc2-c2ccccc2N1S(=O)(=O)c1ccc(Cl)c(Cl)c1)N1CCC(Cc2ccc(C3=NCCCN3)cc2)CC1` (centres unmarked) [Example 6, 2-[5-(3,4-Dichloro-benzenesulfonyl)-5,6-dihydro-phenanthridin-6-yl]-1-{4-[4-(1,4,5,6-tetrahydro-pyrimidin-2-yl)-benzyl]-piperidin-1-yl}-ethanone], for which the IC50 in experiment [1] was < 100 nM. Also, the Ki in experiment [2] was < 100 nM.
For `CC(C)N1CCN(C(=O)C2CCN(S(=O)(=O)c3ccc(NCC(c4ccccc4)c4ccccc4)c(C(=O)N4CCOCC4)c3)CC2)CC1` [Example 70002460, 4-{2-[(2,2-diphenyl-ethyl)-amino]-5-{[4-/(4-<1-methyl-ethyl>-1-piperazinyl)-carbonyl/-1-piperidinyl]-sulfonyl}-benzoyl}-morpholine, reference compound], the IC50 in experiment [1] lay in the range of 100 to 500 nM. Besides, the Ki in experiment [2] was < 100 nM.
Consider `Cc1ccc(S(=O)(=O)N2c3ccccc3-c3ccccc3C2CC(=O)NCCc2ccc(C3=NCCN3)cc2)cc1` (centres unmarked) [Example 14, N-{2-[4-(4,5-Dihydro-1H-imidazol-2-yl)-phenyl]-ethyl}-2-[5-(toluene-4-sulfonyl)-5,6-dihydro-phenanthridin-6-yl]-acetamide hydrochloride], for which the IC50 in experiment [1] was < 100 nM. In experiment [2], the Ki is < 100 nM.
On to `O=C(CC1c2ccccc2-c2ccccc2N1S(=O)(=O)c1ccc(Cl)c(Cl)c1)N[C@H]1CC[C@H](CCN2CCCC2)CC1` (stereo partly drawn) [Example 4, trans-2-[5-(3,4-Dichloro-benzenesulfonyl)-5,6-dihydro-phenanthridin-6-yl]-N-[4-(2-pyrrolidin-1-yl-ethyl)-cyclohexyl]-acetamide], for which the IC50 in experiment [1] was < 100 nM. In experiment [2], the Ki was < 100 nM.
For the compound `O=C(C[C@@H]1C(=O)Nc2ccccc2N1S(=O)(=O)c1ccc(Cl)c(Cl)c1)NCCc1ccc(C2=NCCN2)cc1` [Example 70004287, 2-[1-(3,4-dichloro-benzenesulfonyl)-3-oxo-1,2,3,4-tetrahydroquinoxalin-2(R)-yl]-N-{2-[4-(4,5-dihydro-1H-imidazol-2-yl)-phenyl]-ethyl}-acetamide, reference compound], the IC50 in experiment [1] was < 100 nM. In experiment [2], the Ki is < 100 nM.
